{"source": "patent US7863241B2", "about": "“Compositions for treatment and prevention of pulmonary conditions” (The Scripps Research Institute, priority 2002, dated 2011)", "key": {"[1]": {"system": "rabbits injured with LPS and PMA", "assay": "LPS/PMA-induced pulmonary injury in rabbits (ARDS Rabbit Model), terminal lavage analysis", "type": "in vivo", "method": "The effects of Model surfactant mixture, the serine elastase inhibitor, and the combination of the two on pulmonary inflammation were evaluated on an ARDS Rabbit Model. These experiments are described in details in Examples 8 to 12. Twenty (20) rabbits were divided into five groups for this study. Pulmonary inflammation was induced in Groups 1-4 rabbits from stimulation by lavaging with bacterial lipopolysaccharide (LPS) and, 3 hours later, with phorbol myristate acetate (PMA). Additionally, as treatment, Group 2 rabbits received Model surfactant mixture, Group 3 rabbits received the serine elastase inhibitor, and Group 4 animals received both Model surfactant mixture and the serine elastase inhibitor. Group 5 rabbits were normal rabbits and were used as control. The animals were sacrificed at six (6) hr., the right lower lobe was lavaged three times and the lavage fluids were pooled (terminal lavage) for each animal. The level of injury and the effect of the treatments were measured by the amount of basement membrane protein fragments and red blood cells found in terminal lavage fluids.\nLPS: Minn (List Biological). 5 mg vial. Animals were treated by quantitative lavage leaving 120 μg/kg in 8 ml/kg.\nPMA: (Sigma) diluted in saline or Model surfactant mixture to 5 μg/mL Used 20 ml/kg/rabbit for lavage, leaving 20% of the dosage in the animal.\nModel surfactant mixture: (Discovery Labs) 10 mg/ml. Use 20 ml/kg/rabbit for lavage, leaving 20% of the dosage in the animal.\nSerine Elastase Inhibitor. Elafin (Astra-Zeneca) 3 mg/ml stock, dialyzed against saline to remove azide: 1.3 ml/kg Elafin was administered intravenously at 1.5 hr., 0.33 ml/kg was administered intratracheally (×2 sides) at 3 hr., and 0.66 ml/kg was administered intravenously at 4.5 hr.\nTwenty NZW rabbits are divided into five (5) treatment groups with four (4) animals each. Lung injury is induced by two lavages with LPS in saline and one PMA treatment administered by lavage at 3 hr. Serine elastase inhibitor and Model surfactant mixture were separately and jointly tested to ascertain the degree to which these factors could reduce symptoms of inflammation. Treatments received by the different groups are as follows:\nGroup 1: The animals received two lavages with LPS in saline and one PMA treatment administered by lavage at 3 hr. A dosage of ^125I-BSA was given to the animals intravenously at 5.5 hr. and the animals were sacrificed at 6 hr.\nGroup 2: The animals received two lavages with LPS in saline, one PMA and Model surfactant mixture treatment administered by lavage at 3 hr. A dosage of ^125I-BSA was given to the animals intravenously at 5.5 hr. and the animals were sacrificed at 6 hr.\nGroup 3: The animals received two lavages with LPS in saline and one PMA treatment administered by lavage at 3 hr. […]"}, "[2]": {"molecular_target": "T1, human neutrophil elastase (HNE) (Homo sapiens, UniProt P08246)", "T1 sequence (P08246 30-267)": "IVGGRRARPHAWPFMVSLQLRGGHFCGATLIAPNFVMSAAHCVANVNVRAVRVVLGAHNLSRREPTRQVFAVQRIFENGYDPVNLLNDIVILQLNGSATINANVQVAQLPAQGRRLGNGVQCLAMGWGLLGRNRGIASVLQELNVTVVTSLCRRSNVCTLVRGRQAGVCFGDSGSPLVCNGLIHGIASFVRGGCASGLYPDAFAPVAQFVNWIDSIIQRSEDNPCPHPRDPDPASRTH", "assay": "Inhibition of HNE by terminal lavage fluid of treated rabbits", "type": "biochemical", "details": "0.02 μg HNE with 50 μl terminal lavage fluid of one representative rabbit per group", "method": "The presence of elastase inhibitor(s) (or the residual activity) in the terminal lavage fluids prepared as described in Example 8) was tested. 0.02 μg of human neutrophil elastase (HNE), was incubated with 50 μl of terminal lavage fluid of one representative rabbit from each experimental group (Groups 1-5). HNE activities are assayed using the colorimetric assay as described in Example 1. The assay results are presented graphically in FIG. 9."}, "[3]": {"system": "elastase activity in rabbit BAL fluids", "assay": "Elastase activity in rabbit BAL fluids after addition of serine elastase inhibitor", "type": "biochemical", "details": "100 μg/ml inhibitor added to BAL fluids of six anti-BSA/BSA treated rabbits", "method": "Six rabbits were treated with 3 mg anti-BSA/kg (rabbits 6098 and 6099) or 5 mg anti-BSA/kg (rabbits 6100-6103) was instilled intratracheally and 10 mg of BSA was given intravenously (6098-6101) to induce respiratory distress. Bronchoalveolar lavage (BAL) fluids were taken from the lungs of these rabbits six hours after the treatment and a colorimetric assay of elastase activity was performed on these BAL fluids. Elastase activity is expressed as the concentration of HNE that gives a corresponding OD at 410 nm. Additionally, the same assay was performed after the addition of 100 μg/ml of a serine elastase inhibitor to the BAL fluids."}, "[4]": {"molecular_target": "T1, human neutrophil elastase (HNE)", "assay": "Colorimetric assay of human neutrophil elastase inhibition", "type": "biochemical", "method": "A peptide having the following sequence MeO-Suc-Ala-Ala-Pro-Val-pNA (SEQ ID NO:24) was used as an elastase substrate. One hundred (100) μL of a 0.425 mM solution of the SEQ ID NO:24 peptide substrate was placed in a series of microtiter plate wells. Varying amounts of human neutrophil elastase (HNE) were added to the microtiter plate wells. The optical density at 410 nm (OD410) was used to measure elastase activity, and the optical densities observed were plotted versus the amounts of HNE added to generate a standard curve.\nTo test the ability of a serine elastase inhibitor to inhibit human neutrophil elastase (HNE), a standard amount of 0.125 μg HNE was mixed with increasing amounts of a serine elastase inhibitor before addition of the elastase substrate described in Example 3.\n0.02 μg of human neutrophil elastase (HNE), was incubated with 2 mg/ml of Model surfactant mixture, 100 μg/ml of a serine elastase inhibitor, or both Model surfactant mixture and the serine elastase inhibitor together. The HNE activity remaining was assayed using the calorimetric assay described above. The result is represented graphically in FIG. 8."}, "[5]": {"system": "rabbits injured with LPS and PMA", "assay": "LPS/PMA lung injury in rabbits treated with anti-oxidant catalase", "type": "in vivo, rabbit", "details": "for Albumin In BALF / BALF RBCs / Compliance / PaCO2 6 hr / PaO2 4.5 hr / PaO2 6 hr / Wet:Dry weight / Gross Pathology / Histologic Pathology: average ± SEM; for Wet:Dry weight: lung; for Gross Pathology / Histologic Pathology: on a scale of 0–4", "method": "Procedures employed were similar to those used in the foregoing Examples. Lung injury is induced in rabbits (1.0-1.5 kg) by bronchoalveolar lavage (BAL) using 5 μg/ml bacterial LPS in saline at a dosage of 20 ml/kg. At 2.5 hrs after LPS administration, the rabbits received 20 ml/kg phorbol myristate acetate (PMA) by bronchoalveolar lavage. At 2.5 hours after LPS administration, animals in group 1 received the anti-oxidant catalase intratracheally. Animals in group 2 received catalase intratracheally and intravenously. Animals in group 3 received catalase intratracheally and intravenously, as well as 5mg/ml Model Surfactant Mixture (KL4) intratracheally. Animals in group 4 received no further treatment (control). The rabbits were ventilated at PIP […] PEEP 3 cm H2O pressure. The study was terminated at 6 hrs. Values in Tables 6 and 7 are averages+standard error of the mean (SEM)."}, "Phospholipase A2 (PLA2)": {"system": "Phospholipase A2 (PLA2)", "details": "30 min incubation, lavage fluid of rabbit 6015, increasing amounts of inhibitor", "quoted_text": "Terminal lavage fluid was collected from rabbits experiencing pulmonary injury initiated by the intratracheal administration of partially purified antibodies directed against BSA (anti-BSA antibodies). Palmitoyl, oleoyl phosphotidylglycerol (POPG, Avanti Polar Lipids) was added to the lavage fluid as a substrate for detecting PLA2 activity in the lavage fluid. Prior to addition of the POPG substrate, the mixture was adjusted to a final concentration of 10 mM CaCl2, 100 mM KCl and 25 mM Tris-Cl, pH 8.5. This mixture was incubated at 37° C. Aliquots were removed over time and the amount of oleic acid released from the POPG substrate was measured by high pressure liquid chromatography (HPLC). The amount of oleic acid released was quantified from the height of the peak at 4.59 min elution time from a C-18 HPLC column, as measured by the absorbance at 207 nm.\nBSA and anti-BSA antibodies were administered to rabbit 6015 and lavage fluids were obtained from rabbit 6015 as described in the previous Example. […] This mixture was incubated for 15 min. at 37° C. before addition of POPG substrate. PLA2 activity was measured using the height of the eluted oleic acid HPLC peak, as described in previous Examples."}, "[6]": {"details": "catalase IT & IV (combination: plus 5mg/ml Model Surfactant Mixture IT)"}}, "note": "Entries after “also recorded” stand apart in the source; their conditions may differ."}
{"compound": "Elafin (AQEPVKGPVSTKPGSCPIILIRCAMLNPPNRCLKDTDCPGIKKCCEGSCGMACFVPQ) [serine elastase inhibitor, Elafin (Astra-Zeneca) 3 mg/ml stock, dialyzed against saline]", "values": [{"measurement": "number of RBCs in terminal lavage fluid", "setting": "[1]; 6 hr post LPS/PMA injury", "result": "greater reduction in injury"}, {"measurement": "amount of protein in terminal lavage fluid", "setting": "[1]; 6 hr post LPS/PMA injury, versus injured untreated group", "result": "failure of group 3, which received elastase inhibitor alone, to show a reduction in protein levels"}, {"measurement": "mean protein value in terminal lavage fluid, one aberrant animal excluded", "setting": "[1]; Group 3, 6 hr post LPS/PMA injury", "result": 1.72, "unit": "mg/mL"}, {"measurement": "basement membrane damage (Western blot of basement membrane proteins in BAL fluid)", "setting": "[1]; terminal lavage fluid, LPS/PMA injured rabbits", "result": "Amelioration of the damage in the basement membrane is observed"}, {"measurement": "inhibition of HNE activity by terminal lavage fluid", "setting": "[2]", "result": "highly significant"}, {"measurement": "Elastase activity in BAL fluids after added inhibitor", "setting": "[3]", "result": "inhibited in five out of the six BAL fluids; also recorded: In all cases, the elastase activity was inhibited"}, {"measurement": "HNE activity remaining", "setting": "[4]; 0.02 μg HNE, Model surfactant mixture 2 mg/ml, serine elastase inhibitor 100 μg/ml", "result": "Significant inhibition"}, {"measurement": "HNE activity (OD410) versus log of amount of inhibitor", "setting": "[4]; 0.125 μg HNE, increasing amounts of inhibitor, in vitro", "result": "HNE activity is inhibited in vitro"}]}
{"compound": "catalase", "values": [{"measurement": "lung function (overall)", "setting": "[5]; LPS/PMA injured rabbits, study terminated at 6 hrs", "result": "significantly improve lung function"}, {"measurement": "Albumin In BALF", "setting": "[5]; [6]", "result": "0.50 ± 0.11"}, {"measurement": "BALF RBCs", "setting": "[5]; [6]", "result": "2.3 ± 1.2 ×10^3"}, {"measurement": "Compliance", "setting": "[5]; [6]", "result": "8.4 ± 0.3", "unit": "ml at 12 cm H2O/Kg"}, {"measurement": "PaCO2 6 hr", "setting": "[5]; [6]", "result": "36 ± 5"}, {"measurement": "PaO2 4.5 hr", "setting": "[5]; [6]", "result": "129 ± 19"}, {"measurement": "PaO2 6 hr", "setting": "[5]; [6]", "result": "124 ± 22"}, {"measurement": "Wet:Dry weight", "setting": "[5]; [6]", "result": "8.0 ± 0.6"}, {"measurement": "Gross Pathology", "setting": "[5]; [6]", "result": "1.1 ± 0.4"}, {"measurement": "Histologic Pathology", "setting": "[5]; [6]", "result": "2.9 ± 0.8"}, {"measurement": "Albumin In BALF", "setting": "[5]; catalase IT", "result": "0.65 ± 0.16"}, {"measurement": "BALF RBCs", "setting": "[5]; catalase IT", "result": "6.1 ± 3.6 ×10^3"}, {"measurement": "Compliance", "setting": "[5]; catalase IT", "result": "10.1 ± 1.8", "unit": "ml at 12 cm H2O/Kg"}, {"measurement": "PaCO2 6 hr", "setting": "[5]; catalase IT", "result": "40 ± 3"}, {"measurement": "PaO2 4.5 hr", "setting": "[5]; catalase IT", "result": "128 ± 15"}, {"measurement": "PaO2 6 hr", "setting": "[5]; catalase IT", "result": "119 ± 15"}, {"measurement": "Wet:Dry weight", "setting": "[5]; catalase IT", "result": "7.4 ± 0.4"}, {"measurement": "Gross Pathology", "setting": "[5]; catalase IT", "result": "1.6 ± 0.6"}, {"measurement": "Histologic Pathology", "setting": "[5]; catalase IT", "result": "2.7 ± 0.6"}]}
{"compound": "CCc1c(CC(N)=O)c2cc(OCCCP(=O)(O)O)ccc2n1Cc1ccccc1", "note": "[LY311727]", "values": [{"measurement": "PLA2 activity (release of oleic acid from POPG)", "setting": "Phospholipase A2 (PLA2)", "result": "decreasing amounts of PLA2 activity were observed"}]}
